{
  "source": "patent US7671054B1",
  "about": "“Reverse-turn mimetics and method relating thereto” (Choongwae Pharma Corporation, priority 2001, dated 2010)",
  "key": {"[1]": {"tested_on": "786-0", "test": "Sulforhodamine B (SRB) assay", "type": "cell-based", "details": "Homo sapiens; 786-0, listed under Colon; 48 hours; read-out: GI50 (SRB in vitro cytotoxicity)", "experimental": "(§1) Growth inhibitory effect of Compound A on the cells listed below was measured by the sulforhodamine B assay. SW480 cells in 100 μl media were plated in each well of 96-well plate and allowed to attach for 24 hours. Compound A was added to the wells to produce the desired final concentrations, and the plates were incubated at 37° C. for 48 hours. The cells were then fixed by gentle addition of 100 μl of cold (4° C.) 10% trichloroacetic acid to each well, followed by incubation at 4° C. for 1 hour. Plates were washed with deionized water five times and allowed to air dry. The cells were then stained by addition of 100 μl SRB solution (0.4% SRB(w/v) in 1% acetic acid (v/v)) to wells for 15 min. After staining, the plates were quickly washed five times with 1% acetic acid to remove any unbound dye, and allowed to air dry. Bound dye was solubilized with 10 mmol/L Tris base (pH 10.5) prior to reading the plates. The optical density (OD) was read on a plate reader at a wavelength of 515 nm with Molecular Device. Inhibition of growth was expressed as relative viability (% of control) and GI50 was calculated from concentration-response curves after log/probit transformation."}, "[2]": {"tested_on": "CAKI-1", "test": "Sulforhodamine B (SRB) assay", "type": "cell-based", "details": "Homo sapiens; CAKI-1, Renal; 48 hours; read-out: GI50 (SRB in vitro cytotoxicity)", "experimental": "as §1"}, "[3]": {"tested_on": "CRL1579", "test": "Sulforhodamine B (SRB) assay", "type": "cell-based", "details": "CRL1579, Melanoma; 48 hours; read-out: GI50 (SRB in vitro cytotoxicity)", "experimental": "as §1"}, "[4]": {"tested_on": "DLD-1", "test": "Sulforhodamine B (SRB) assay", "type": "cell-based", "details": "Homo sapiens; DLD-1, Colon; 48 hours; read-out: GI50 (SRB in vitro cytotoxicity)", "experimental": "as §1"}, "[5]": {"tested_on": "G361", "test": "Sulforhodamine B (SRB) assay", "type": "cell-based", "details": "Homo sapiens, G-361; G361, Melanoma; 48 hours; read-out: GI50 (SRB in vitro cytotoxicity)", "experimental": "as §1"}, "[6]": {"tested_on": "MCF7", "test": "Sulforhodamine B (SRB) assay", "type": "cell-based", "details": "Homo sapiens; MCF7, Breast; 48 hours; read-out: GI50 (SRB in vitro cytotoxicity)", "experimental": "as §1"}, "[7]": {"tested_on": "survivin protein", "test": "Western blot analysis of survivin", "type": "cell-based"}, "[8]": {"tested_on": "PC-12 cells overexpressing mutant PS-1/L286V", "test": "Neuronal differentiation and quantitation of neurite outgrowth", "type": "cell-based, Rat", "details": "PS-1/L286V mutant PC-12 cells", "experimental": "Cell Differentiation. Cell culture dishes were pre-coated overnight with 0.25 mg/ml collagen (Cohesion, Calif.), 10 μg/ml Poly-L-Lysine (Sigma-Aldrich, St. Louis, Mo.) and 12 μg/ml Polyethyleneimine (ICN, La Mesa, Calif.). Cells were cultured on coated dishes at 15,000 cells/cm^2, and differentiated into a neuron-like phenotype by incubation in medium with reduced serum (1% fetal bovine serum), containing 50 ng/ml nerve growth factor (NGF) (Sigma-Aldrich) for 10 days. NGF-containing medium was changed every 2-3 days.\nDifferentiated PC-12/L286V cells were treated with increasing concentrations of this compound for 4 hours. Transfection was then initiated after this treatment period.\nQuantitation of Neurite Outgrowth. Cell counts were taken from six randomly chosen microscopic fields (10×). […] The number of cells with such outgrowths was then expressed as a percentage of the total number of cells. Values obtained were from duplicates of three independent experiments."}, "[9]": {"tested_on": "GAP-43 in PC-12 PS-1/L286V cells", "test": "GAP-43 immunofluorescence", "type": "cell-based, Rat", "details": "PS-1/L286V mutant PC-12 cells; 10 μM", "experimental": "Immunofluorescence. Cells were plated at a density of 10,000 cells/cm^2 on sterile coated 22×22 mm coverslips in a 6-well culture plate. Differentiation was initiated, as previously described, for 10 days. The differentiated cells were then fixed in methanol for 15 minutes at −20° C. This is followed by a 15 minutes incubation with PBS+0.1% Triton X-100. The coverslips were incubated with antibodies raised against Ephrin B2 Receptor (Santa Cruz Biotechnology) and Gap-43 (Novus Biologicals) for 40 minutes at 37° C. After a series of washes with PBS-Triton X-100, secondary antibody conjugated to FITC (Jackson ImmunoResearch, Westgrove, Pa.) was applied. All slides images were acquired using a Nikon PCM2000 Laser Scanning Confocal Microscope mounted on a Nikon Eclipse E600 upright microscope (Nikon, Melville, N.Y.)."}, "[10]": {"tested_on": "HCT116 cells", "test": "Flow cytometric analysis (FACS) of cell cycle", "type": "cell-based", "details": "25 μM, 24 hours", "experimental": "(§2) For FACS analysis, approx. 5×10^6 cells from Compound D-treated or vehicle-treated were fixed with 70% chilled ethanol and stored at −20° C. for at least 30 minutes. The cells were washed once with 1×PBS and incubated with propidium iodine (PI) solution (85 μg/ml propidium iodine, 0.1% Nonidet P-40, 10 mg/ml RNAse) for 30 minutes at room temperature. 10,000 stained cells for each sample were acquired using Beckman Coulter EPICS XL-MCL Flow Cytometry and the percentage of cells in different phase of the cell cycle was determined by Expo32 ADC software (Coulter Corporation, Miami, Fla., 33196).\n(§3) It has been shown that inhibition of the expression of the cyclin D1 gene causes arrest at the G1/S-phase of the cell cycle (Shintani et al., “Infrequent alternations of RB pathway (Rb-p16INK4A-cyclin D1) in adenoid cystic carcinoma of salivary glands,” Anticancer Res. 20:2169-75 (2000)). […] The cells were subsequently stained with propidium iodide (PI) and analyzed for DNA content by FACS cytofluorometry."}, "[11]": {"tested_on": "SW480 cells", "test": "Flow cytometric analysis (FACS) of cell cycle", "type": "cell-based", "details": "25 μM, 24 hours", "experimental": "as §2, §3"}, "[12]": {"tested_on": "survivin promoter in wild type, CBP+/−, p300+/− 3T3 cells", "test": "Survivin promoter luciferase reporter in 3T3 cells", "type": "cell-based", "from_the_text": "A plasmid containing luciferase under the control of survivin promoter was constructed and transfected into wild type, CBP+/−, or p300+/−3T3 cells."}, "[13]": {"tested_on": "survivin promoter in SW480 cells", "test": "Survivin luciferase reporter in SW480 cells", "type": "cell-based", "details": "SW480 cells; various concentrations"}, "[14]": {"tested_on": "survivin promoter occupancy by CBP, β-catenin, Tcf4 and acetylated histone", "test": "ChIP assay on SW480 cells", "type": "cell-based", "details": "25 μM, 18 hours"}, "[15]": {"tested_on": "survivin in SW480 cells", "test": "Survivin immunofluorescence microscopy", "type": "cell-based"}, "[16]": {"tested_on": "cultured tumor cells", "test": "Cell death of cultured tumor cells", "type": "cell-based", "details": "5.0 μM"}, "[17]": {"target": "β-catenin/p300 interaction (Homo sapiens, UniProt Q09472)", "sequence (Q09472 whole entry)": "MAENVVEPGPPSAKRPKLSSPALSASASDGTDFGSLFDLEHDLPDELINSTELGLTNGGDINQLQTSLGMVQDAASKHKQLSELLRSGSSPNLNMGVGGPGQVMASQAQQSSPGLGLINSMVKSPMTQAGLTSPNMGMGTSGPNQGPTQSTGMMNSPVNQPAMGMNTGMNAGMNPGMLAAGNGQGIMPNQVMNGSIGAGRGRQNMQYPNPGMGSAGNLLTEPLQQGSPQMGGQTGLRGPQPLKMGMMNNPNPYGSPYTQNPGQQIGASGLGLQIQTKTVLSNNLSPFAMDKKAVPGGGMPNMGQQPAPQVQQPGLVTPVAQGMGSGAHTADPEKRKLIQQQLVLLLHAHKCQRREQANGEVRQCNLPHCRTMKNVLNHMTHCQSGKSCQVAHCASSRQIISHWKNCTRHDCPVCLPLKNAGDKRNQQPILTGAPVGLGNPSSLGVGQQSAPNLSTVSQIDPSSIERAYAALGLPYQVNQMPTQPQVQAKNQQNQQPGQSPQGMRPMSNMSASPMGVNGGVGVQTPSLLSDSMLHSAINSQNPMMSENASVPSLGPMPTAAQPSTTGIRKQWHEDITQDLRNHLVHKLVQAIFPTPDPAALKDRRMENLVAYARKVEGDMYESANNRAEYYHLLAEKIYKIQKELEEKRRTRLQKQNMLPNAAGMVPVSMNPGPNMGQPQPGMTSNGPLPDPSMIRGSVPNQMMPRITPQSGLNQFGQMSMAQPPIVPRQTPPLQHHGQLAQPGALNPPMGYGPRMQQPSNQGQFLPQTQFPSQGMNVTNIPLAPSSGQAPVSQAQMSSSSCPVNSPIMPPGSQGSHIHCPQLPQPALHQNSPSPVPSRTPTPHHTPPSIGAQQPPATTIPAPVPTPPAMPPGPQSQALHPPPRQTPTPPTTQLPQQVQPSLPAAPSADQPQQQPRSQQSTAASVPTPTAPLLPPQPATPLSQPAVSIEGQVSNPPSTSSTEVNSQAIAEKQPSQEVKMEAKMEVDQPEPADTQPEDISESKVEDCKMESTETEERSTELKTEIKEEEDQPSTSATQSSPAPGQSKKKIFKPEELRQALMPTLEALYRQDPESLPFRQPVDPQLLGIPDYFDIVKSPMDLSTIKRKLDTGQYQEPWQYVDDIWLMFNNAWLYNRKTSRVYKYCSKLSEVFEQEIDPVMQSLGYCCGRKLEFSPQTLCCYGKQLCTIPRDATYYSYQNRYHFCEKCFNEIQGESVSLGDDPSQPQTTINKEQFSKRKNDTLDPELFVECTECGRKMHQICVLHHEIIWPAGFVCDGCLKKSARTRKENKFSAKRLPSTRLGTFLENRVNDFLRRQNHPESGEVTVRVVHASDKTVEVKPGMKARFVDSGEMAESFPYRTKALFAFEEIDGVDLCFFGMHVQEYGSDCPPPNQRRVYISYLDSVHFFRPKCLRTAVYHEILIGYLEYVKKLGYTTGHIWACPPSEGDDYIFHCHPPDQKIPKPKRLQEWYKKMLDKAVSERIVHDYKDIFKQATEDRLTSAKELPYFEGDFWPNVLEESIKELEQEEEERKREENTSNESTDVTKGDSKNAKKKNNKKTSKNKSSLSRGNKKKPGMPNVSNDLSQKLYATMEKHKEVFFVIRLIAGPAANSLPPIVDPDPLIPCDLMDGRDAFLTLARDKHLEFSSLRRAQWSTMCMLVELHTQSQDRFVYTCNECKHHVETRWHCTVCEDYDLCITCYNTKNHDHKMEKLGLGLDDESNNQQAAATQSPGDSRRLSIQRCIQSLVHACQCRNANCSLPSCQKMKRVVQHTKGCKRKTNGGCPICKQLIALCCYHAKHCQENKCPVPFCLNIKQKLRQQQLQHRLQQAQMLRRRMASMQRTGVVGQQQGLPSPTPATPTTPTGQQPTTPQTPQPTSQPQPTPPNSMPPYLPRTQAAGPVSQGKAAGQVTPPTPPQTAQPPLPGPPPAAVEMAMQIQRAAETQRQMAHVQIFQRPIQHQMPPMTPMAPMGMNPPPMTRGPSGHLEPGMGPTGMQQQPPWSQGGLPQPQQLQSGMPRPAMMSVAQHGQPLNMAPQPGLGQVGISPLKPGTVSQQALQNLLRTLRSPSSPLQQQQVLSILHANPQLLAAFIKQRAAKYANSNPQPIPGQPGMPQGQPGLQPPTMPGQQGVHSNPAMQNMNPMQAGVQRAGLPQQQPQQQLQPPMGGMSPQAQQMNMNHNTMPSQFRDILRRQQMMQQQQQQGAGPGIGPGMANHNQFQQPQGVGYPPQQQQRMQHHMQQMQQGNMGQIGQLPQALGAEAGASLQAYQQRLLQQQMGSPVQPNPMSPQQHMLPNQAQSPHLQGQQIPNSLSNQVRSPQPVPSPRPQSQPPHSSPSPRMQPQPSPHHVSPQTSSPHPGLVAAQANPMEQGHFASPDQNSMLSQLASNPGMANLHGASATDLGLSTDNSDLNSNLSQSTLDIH", "details": "Emami et al., Cancer Cell, in press; cited from earlier work"}},
  "note": "“Also recorded” adds a separate entry of the source.",
  "data": [
    {"smiles": "O=c1[nH]cc(F)c(=O)[nH]1", "note": "[Compound 5-FU, 5-fluorouracil]", "values": [
      {"measurement": "GI50", "setting": "[1]", "result": 0.584, "unit": "µg/mL"},
      {"measurement": "GI50", "setting": "[2]", "result": 0.925, "unit": "µg/mL"},
      {"measurement": "GI50", "setting": "[3]", "result": "> 10", "unit": "µg/mL"},
      {"measurement": "GI50", "setting": "[4]", "result": "> 10", "unit": "µg/mL"},
      {"measurement": "GI50", "setting": "[5]", "result": 1.54, "unit": "µg/mL"},
      {"measurement": "GI50", "setting": "[6]", "result": 1.75, "unit": "µg/mL"},
      {"measurement": "amount of survivin protein (Western blot)", "setting": "[7]; 5 μM", "result": "reduced the amount of the survivin protein"}
    ]},
    {"smiles": "O=C1[C@H](Cc2ccc(O)cc2)N2C(=O)CCN(C(=O)NCc3ccccc3)[C@H]2CN1Cc1cccc2ccccc12", "note": "[Compound D]", "values": [
      {"measurement": "percentage of cells bearing neurites greater than twice the length of the cell body", "setting": "[8]; 10 μM", "result": "substantially increased the percentage of cells bearing neurites; also recorded: significantly increased"},
      {"measurement": "neurite outgrowth and differentiation", "setting": "[8]; 10 μM plus NGF, 10 days", "result": "essentially normal neurite outgrowth and differentiation; also recorded: phenotypically corrects deficient neuronal differentiation"},
      {"measurement": "GAP-43 staining", "setting": "[9]", "result": "significantly elevated"},
      {"measurement": "cell cycle distribution (PI, FACS)", "setting": "[10]", "result": "increased accumulation at G1/S-phase of the cell cycle; also recorded: arrests cells in G1"},
      {"measurement": "cell cycle distribution (PI, FACS)", "setting": "[11]", "result": "increased accumulation at G1/S-phase of the cell cycle; also recorded: arrests cells in G1"},
      {"measurement": "survivin gene expression (luciferase under survivin promoter)", "setting": "[12]", "result": "reduces expression of the survivin gene; also recorded: knout-down"},
      {"measurement": "Wnt1 stimulation of survivin gene expression", "setting": "[12]; with Wnt1", "result": "decreases the stimulation of the survivin gene expression by Wnt1"},
      {"measurement": "survivin luciferase reporter activity", "setting": "[13]", "result": "inhibit expression of survivin; also recorded: inhibit the activity of a survivin luciferase reporter"},
      {"measurement": "association of CBP, β-catenin, Tcf4 and acetylated histone with the survivin promoter (ChIP)", "setting": "[14]", "result": "decreases the association of all these proteins with the survivin promoter; also recorded: decreases the association of various proteins with the survivin promoter"},
      {"measurement": "amount of survivin protein (Western blot)", "setting": "[7]; 10 μM", "result": "reduced the amount of the survivin protein"},
      {"measurement": "amount of survivin protein (Western blot)", "setting": "[7]; 25 μM", "result": "reduced the amount of the survivin protein"},
      {"measurement": "survivin protein (immunofluorescence microscopy)", "setting": "[15]", "result": "little or no survivin protein was detected"},
      {"measurement": "cell death", "setting": "[16]", "result": "promotes cell death"},
      {"measurement": "β-catenin/p300 interaction", "setting": "[17]", "result": "not the β-catenin/p300 interaction"}
    ]}
  ]
}
